# Reference: patent US9708272B2, “Inhibitors of α-amino-β-carboxymuconic acid semialdehyde decarboxylase” (TES Pharma S.r.l., priority 2014, dated 2017)
# “Also recorded” adds a separate entry of the source.
# Columns and labels:
# Caspase 3/7 = assay: Modulation of caspase 3/7 activity in MDCK cells injured with cisplatin; format: cell-based
# Procedure: MDCK cells are cultured in base medium to a final concentration of 10%. Cells are plated into 96 wells and 24 hours after cell plating the medium is changed with fresh medium supplemented with 1% FBS. Cisplatin is then used to induce cell injury. Different concentrations of Formula (I), Formula (Ia), Formula (Ib), Formula (II), or Formula (III), or a pharmaceutically acceptable salt thereof (in DMSO) are added in combination with cisplatin or prior to adding cisplatin. Caspase 3/7 activity (Promega) is determined according to standard procedures using a luminescent signal readout on a plate reader. Each experiment/condition is performed in triplicate. Caspase activity is analyzed as percentage effect normalized to the cisplatin alone and vehicle treated cells.
# MDCK cells (MDCK (NBL-2) ATCC® CCL-34™) were cultured in base medium ATCC-formulated Eagle's Minimum Essential Medium, Catalog No. 30-2003 with fetal bovine serum (FBS) to a final concentration of 10%. […]
# Caspase 3/7 activity (Promega) was determined according to standard procedures using a luminescent signal readout on a Victor V plate reader (PerkinElmer). […]
# Caspase activity was analyzed as percentage effect normalized to the cisplatin alone (100%) and vehicle treated cells as 0% of caspase activity. Data were analyzed by GraphPad Software. […]
# [1] = test system: human primary hepatocytes; assay: NAD+ content in human primary hepatocytes (LCMS/MS); format: cell-based; settings: 0.5 μM and 5 μM, FIG. 1
# Procedure: Primary hepatocytes are treated with different concentrations of a compound of Formula (I), Formula (Ia), Formula (Ib), Formula (II), or Formula (III), or a pharmaceutically acceptable salt thereof, or MEHP (control) after seeding. The compound is replaced every 24 hours, and then cells are directly harvested and lysed to detect NAD^+ content through LC MS/MS (liquid chromatography mass spectrometry/mass spectroscopy).
# The NAD^+ concentration or content was determined in human primary hepatocytes treated with Compound 4. Vehicle (NT) was used as a control.
# At least three experiments were run treating primary hepatocytes with different concentrations of Compound 4 (0.5 μM and 5 μM) after 48 hrs from seeding. Compound 4 was replaced every 24 hrs, and then cells were directly harvested and lysed with ACN/H2O (ratio 5:1). LCMS/MS was used to detect and measure NAD^+ concentration/content. […] (FIG. 1)
# The NAD^+ concentration or content was determined in human primary hepatocytes treated with Compound 1 and MEHP, a known ACMSD inhibitor. MEHP was used as a control.
# At least three experiments were run treating primary hepatocytes with different concentrations of Compound 1 (0.5 μM, 5 μM, and 50 μM) after 48 hrs from seeding. Compound 1 was replaced every 24 hrs, and then cells were directly harvested and lysed with ACN/H2O (ratio 5:1). […]
# AML-12 cells = assay: Cytotoxicity (LDH release, ATP level) in AML-12 cells; format: cell-based, mouse; settings: 10 nM to 300 μM; 4 hrs; DMSO 1%
# Procedure: (§1) HePG2 and AML-12 cells are seeded and a dose-response of the compound is performed at various concentrations. Cells are stimulated and the supernatant is used to perform LDH release as a measure of necrosis while the cells are lysed to detect ATP levels for determining cell viability.
# (§2) Cytotoxicity: 20000 HePG2 and AML-12 cells were seeded in 96 well plate (Viewplate PerkinElmer). Dose-response of the compound in Table 2 was performed using HP D300 digital dispenser, ranging from 10 nM to 300 μM with constant DMSO 1% in medium. Cells were stimulated for 4 hrs at 37° C.; the supernatant was used to perform LDH release (Cytotox-one, Promega) as a measure of necrosis while the cells were lysed to detect ATP level for determining cell viability (Celltiter-glo, Promega) according to manufacturer's instructions.
# HePG2 cells = assay: Cytotoxicity (LDH release, ATP level) in HePG2 cells; format: cell-based; settings: 10 nM to 300 μM; 4 hrs; DMSO 1%
# Procedure: as §1, §2
# hERG potassium channel = hERG potassium channel (Homo sapiens (Human), UniProt Q12809); assay: Predictor hERG assay, fluorescence polarization tracer displacement; settings: hERG channel affinity binding; DMSO 1%
# Source text: The Predictor hERG assay kit is stably transfected with hERG potassium channel and a high-affinity red fluorescent hERG channel ligand and is used for the determination of hERG channel affinity binding of compounds of Formula (I), Formula (Ia), Formula (Ib), Formula (II), or Formula (III), or a pharmaceutically acceptable salt thereof. Compounds that bind to the hERG channel protein (competitors) are identified by their ability to displace the tracer which results in a lower fluorescence polarization.
# The Predictor hERG assay kit (Invitrogen), containing membrane preparations from Chinese hamster ovary cells stably transfected with hERG potassium channel and a high-affinity red fluorescent hERG channel ligand (tracer), was used for the determination of hERG channel affinity binding of the test compounds in Table 2. Compounds that bind to the hERG channel protein (competitors) were identified by their ability to displace the tracer, resulting in a lower fluorescence polarization. The final concentration of DMSO in each well was maintained at 1%. The assays were performed according to the manufacturer's protocol (Invitrogen).
# SOD2 [2] = assay: Modulation of SOD2 activity in AML-12 cells; format: cell-based, mouse; settings: 24 hours
# Procedure: Primary hepatocytes or AML-12 cells are lysed and total protein concentration is determined using the Bradford assay. SOD2 activity is determined at indicated times after treatment with a compound of Formula (I), Formula (Ia), Formula (Ib), Formula (II), or Formula (III), or a pharmaceutically acceptable salt thereof, using a SOD Assay Kit. Absorbance is determined and results are expressed in U/ml/mg of protein according to the standard curve and measured protein concentration. […]
# Primary hepatocytes or AML-12 cells were then lysed in a 20 mM HEPES buffer (Gibco), pH 7.2, containing 1 mM EGTA (Sigma), 210 mM mannitol (Sigma), and 70 mM sucrose (AMRESCO). Total protein concentration was determined using the Bradford assay (BioRad). SOD-2 activity was determined at indicated times after ACMSD inhibitor treatment by the SOD Assay Kit (Cayman Chemical) according to the manufacturer's instructions. […] Absorbance was determined with a Victor X4 multi-label plate reader (Perkin-Elmer) at 450 nm. Results are expressed in U/ml/mg of protein according to the standard curve and measured protein concentration.
# SOD2 [3] = assay: Modulation of SOD2 activity in murine primary hepatocytes; format: cell-based, mouse
# Procedure: Primary hepatocytes or AML-12 cells are lysed and total protein concentration is determined using the Bradford assay. SOD2 activity is determined at indicated times after treatment with a compound of Formula (I), Formula (Ia), Formula (Ib), Formula (II), or Formula (III), or a pharmaceutically acceptable salt thereof, using a SOD Assay Kit. Absorbance is determined and results are expressed in U/ml/mg of protein according to the standard curve and measured protein concentration.
# Primary hepatocytes were prepared from 8-12-week-old C57BL/6J mice by collagenase perfusion method. Mouse livers were perfused with Hank's balanced salt solution (HBSS, KCl, 5.4 mM; KH2PO4, 0.45 mM; NaCl, 138 mM; NaHCO3, 4.2 mM; Na2HPO4, 0.34 mM; glucose, 5.5 mM; […]; EGTA, 50 mM; CaCl2, 50 mM; pH 7.4). Livers were then washed at a rate of 5 ml/min through the portal vein. After washing, livers were perfused with collagenase (0.025%) solution. Cell viability was assessed by the trypan blue method. Isolated primary hepatocytes were plated with DMEM medium (Gibco) including 10% FCS, 10 units per ml penicillin and HEPES for buffering. The cells were maintained in culture at 37° C. in a humidified atmosphere of 5% CO2/95% air. After 6-8 hrs of attachment, this medium was replaced with media containing different concentrations of an ACMSD inhibitor (i.e., Compound 1 or Compound 17) or with the corresponding concentration of DMSO (as a control). Primary hepatocytes were harvested about 24 hrs later if not indicated differently.
# Primary hepatocytes or AML-12 cells were then lysed in a 20 mM HEPES buffer (Gibco), pH 7.2, containing 1 mM EGTA (Sigma), 210 mM mannitol (Sigma), and 70 mM sucrose (AMRESCO). Total protein concentration was determined using the Bradford assay (BioRad). SOD-2 activity was determined at indicated times after ACMSD inhibitor treatment by the SOD Assay Kit (Cayman Chemical) according to the manufacturer's instructions. In order to specifically detect the SOD2 activity 2 mM potassium cyanide was added to the assay, which inhibited both Cu/Zn-SOD and extracellular SOD, resulting in the detection of only Mn-SOD (SOD-2) activity. Absorbance was determined with a Victor X4 multi-label plate reader (Perkin-Elmer) at 450 nm. Results are expressed in U/ml/mg of protein according to the standard curve and measured protein concentration.
# [4] = test system: murine primary hepatocytes; assay: NAD+ content in murine primary hepatocytes (HPLC, mass-spectrometry); format: cell-based, mouse; settings: 24 hours
# [5] = test system: SIRT1-regulated genes (Pgc1a, Sod1, Sod2); assay: RT-qPCR analysis of SIRT1-regulated genes in primary murine hepatocytes; format: cell-based; settings: primary mouse hepatocytes; 24 hrs; 5 nM-500 nM range
# Procedure: Cells (AML-12, Hepa-1.6, HEK-293, primary human and murine hepatocytes) are treated with different concentrations of a compound of Formula (I), Formula (Ia), Formula (Ib), Formula (II), or Formula (III), or a pharmaceutically acceptable salt thereof and the gene expression of ACMSD, Pgc1a, Sod1, and Sod2 (MnSOD) is determined using RT-qPCR. Total RNA is extracted from cells and the extracted RNA is treated with DNase and used for reverse transcription (RT).
# Gene expression of ACMSD and genes known to be regulated by SIRT1, (an enzyme that is strictly NAD^+ dependent) such as Pgc1a, Sod1, Sod2 (MnSOD), were analysed in AML-12 cells, Hepa-1.6 cells and primary murine hepatocytes treated with Compound 1 or 17.
# Cells (AML-12, Hepa-1.6, HEK-293, primary human and murine hepatocytes) were treated with different concentrations of Compound 1 or Compound 17. Total RNA was extracted from cells using TRIzol (Invitrogen) according to the manufacturer's instructions. The RNA was treated with DNase, and 2 μg of RNA was used for reverse transcription (RT). 50× diluted cDNA was used for RT-quantitative PCR (RT-qPCR) reactions. The RT-qPCR reactions were performed using the Light-Cycler system (Roche Applied Science) and a qPCR Supermix (QIAGEN) with the indicated primers. The average of at least three technical repeats was used for each biological data point.
# FoxO1 = FoxO1 phosphorylation levels in AML-12 cells (western blot); format: cell-based, mouse; settings: 24 hours, FIG. 6
# Procedure: AML-12 cells are treated with different concentrations of a compound of Formula (I), Formula (Ia), Formula (Ib), Formula (II), or Formula (III), or a pharmaceutically acceptable salt thereof. Cells are then lysed, and analyzed by SDS-PAGE/western blot. Blocking and antibody incubations are then done and each protein present is detected with its specific antibody.
# AML-12 cells were treated with different concentrations of Compound 1 or Compound 17 for 24 hours. Cells were then lysed in lysis buffer (50 mM Tris, 150 mM KCl, EDTA 1 mM, NP40 1%) containing protease and phosphatase inhibitors, and analyzed by SDS-PAGE/western blot. Blocking and antibody incubations were done in 5% milk. Each protein present was detected with its specific antibody. Tubulin antibody was obtained from Sigma Inc, FoxO1 and phopho-FoxO1 (Ser256) antibodies were obtained from Cell Signaling. Antibody detection reactions were developed by enhanced chemiluminescence (Advansta, Calif., USA) using x-ray films.
# Chain of hERG potassium channel (Q12809 whole entry): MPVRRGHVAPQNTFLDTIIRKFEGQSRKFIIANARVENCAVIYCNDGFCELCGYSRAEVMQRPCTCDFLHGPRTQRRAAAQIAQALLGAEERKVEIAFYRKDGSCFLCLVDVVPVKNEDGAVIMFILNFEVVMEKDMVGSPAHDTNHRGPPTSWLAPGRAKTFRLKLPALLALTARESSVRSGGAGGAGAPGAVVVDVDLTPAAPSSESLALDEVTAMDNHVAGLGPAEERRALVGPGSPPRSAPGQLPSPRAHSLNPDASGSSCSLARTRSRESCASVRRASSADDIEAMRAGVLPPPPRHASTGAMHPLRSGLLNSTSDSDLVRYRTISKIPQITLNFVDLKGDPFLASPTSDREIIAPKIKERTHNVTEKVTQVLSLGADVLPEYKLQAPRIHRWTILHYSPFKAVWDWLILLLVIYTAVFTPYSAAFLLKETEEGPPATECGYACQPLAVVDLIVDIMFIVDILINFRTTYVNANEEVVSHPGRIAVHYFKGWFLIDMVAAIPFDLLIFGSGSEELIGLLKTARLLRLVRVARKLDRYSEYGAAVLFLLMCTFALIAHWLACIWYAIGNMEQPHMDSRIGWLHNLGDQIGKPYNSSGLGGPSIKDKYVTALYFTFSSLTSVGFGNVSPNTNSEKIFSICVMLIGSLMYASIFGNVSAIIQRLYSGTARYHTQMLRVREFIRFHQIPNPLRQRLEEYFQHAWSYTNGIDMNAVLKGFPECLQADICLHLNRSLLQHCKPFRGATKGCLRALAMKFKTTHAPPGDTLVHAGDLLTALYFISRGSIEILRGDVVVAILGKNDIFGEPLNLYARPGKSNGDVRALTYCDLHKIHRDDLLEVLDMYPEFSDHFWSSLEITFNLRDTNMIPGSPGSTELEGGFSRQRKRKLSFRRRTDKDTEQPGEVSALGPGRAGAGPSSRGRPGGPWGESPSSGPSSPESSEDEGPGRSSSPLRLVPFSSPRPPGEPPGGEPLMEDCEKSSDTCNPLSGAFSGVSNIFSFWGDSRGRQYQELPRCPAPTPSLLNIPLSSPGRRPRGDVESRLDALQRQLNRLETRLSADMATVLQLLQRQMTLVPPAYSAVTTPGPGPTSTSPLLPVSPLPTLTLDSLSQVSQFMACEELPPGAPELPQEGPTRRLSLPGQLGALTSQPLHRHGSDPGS
Structure (SMILES),Cytotoxicity AML-12 (AML-12 cells),Cytotoxicity Hep-G2 (HePG2 cells),hERG (hERG potassium channel),further results
N#Cc1c(-c2cccs2)nc(SCc2cccc(CC(=O)O)c2)[nH]c1=O [Compound 18],,,,"activity of caspase 3/7 induced by cisplatin (Caspase 3/7; cisplatin 50 μM for 16 hrs): decreases, in significant manner; concentration with significant decrease of caspase activity vs cisplatin alone (p<0.001) (Caspase 3/7; in combination with cisplatin): 100 µM"
N#Cc1c(-c2cccs2)nc(SCc2cccc(C(=O)O)c2)[nH]c1=O [Compound 4],Not Toxic,Not Toxic,No Activity,ACMSD-1 inhibition (NAD+ concentration/content) [1]: inhibits ACMSD-1 enzyme at concentrations as low as 0.5 μM and 5 μM
N#Cc1c(-c2ccc(Cl)cc2)nc(SCc2ccc(C(=O)O)cc2)[nH]c1=O [Compound 8],Not Toxic,Not Toxic,No Activity,
N#Cc1c(-c2cccs2)nc(SCc2cccc(-c3nn[nH]n3)c2)[nH]c1=O [Compound 17],Not Toxic,Not Toxic,No Activity,"SOD2 activity (SOD2 [2]): induced in a dose-dependent manner; dose at which effects on SOD2 activity were observed (SOD2 [3]; primary hepatocytes): about 5 nM; dose at which the effect on SOD2 activity reached a maximum (SOD2 [3]; primary hepatocytes): about 50 nM; SOD2 activity (SOD2 [3]; primary murine hepatocytes, 24 hours): induced in a dose-dependent manner; intra-cellular NAD+ levels ([4]; 5 nM, 10 nM and 50 nM, FIG. 2): increase in NAD^+ levels; also recorded: significant and dose-dependent increase; concentration with significant effect on NAD+ levels [4]: ≤ 5 nM; Pgc1a mRNA expression levels [5]: dose-dependent increase; Sod2 (MnSOD) mRNA expression levels [5]: dose-dependent increase; FoxO1 phosphorylation at Ser256 (FoxO1): decrease in FoxO1 phosphorylation at Ser256 with increasing dose"
N#Cc1c(-c2cccs2)nc(SCc2cccc(-c3noc(=O)[nH]3)c2)[nH]c1=O [Compound 19],Not Toxic,Not Toxic,No Activity,
N#Cc1c(-c2nccs2)nc(SCc2cccc(C(=O)O)c2)[nH]c1=O [Compound 5],Not Toxic,Not Toxic,No Activity,
O=C(O)c1cccc(CSc2nc(-c3ccccc3)c(Br)c(=O)[nH]2)c1 [Compound 11],Not Toxic,Not Toxic,No Activity,
